# Measurements published in US20040044055A1, “N-alkoxlyalkyl-substituted benzimidazoles and the use thereof as an agent against parastic protozoans” (priority 2000, published 2004).
# Columns and labels:
# Type in all cases: in vivo
# [1] = system: Eimeria acervulina; test: Cage experiment on coccidiosis/chicks; settings: chicks; for Efficacy against Eimeria acervulina: 1st figure of cell
# Experimental: (§1) 8- to 12- day-old male chicks (e.g. LSL Brinkschulte/Senden) which have been reared coccidia-free receive the compounds according to the invention (test substances) in the concentration indicated in ppm with the feed from 3 days before (day −3) infection (=a.i.) until 8 (9) days after infection (=p.i.). 3 animals are kept in each cage. One or more groups of this type are employed per dose. Infection is carried out by means of a stomach tube directly into the crop with approximately 100,000 sporulated oocysts of Eimeria acervulina and with approximately 30,000 oocysts each of E. maxima and 40,000 sporulated oocysts of E. tenella. These are highly virulent strains. The exact infection dose is adjusted so that, if possible, one of three experimentally infected untreated chicks dies due to the infection. For assessment of the efficacy, the following criteria are taken into account: weight increase from the start of the experiment to the end of the experiment, death rate due to infection, macroscopic assessment of the faeces with respect to diarrhoea and excretion of blood on days 5 and 7 p.i. (assessment 0 to 6), macroscopic assessment of the intestinal mucosa, in particular of the appendices (assessment 0 to 6) and the oocyst excretion as well as the proportion (in %) of the oocysts sporulating in the course of 24 hours. The number of oocysts in the faeces was determined with the aid of a McMaster counting chamber (see Engelbrecht and coworkers “Parasitologische Arbeitsmethoden in Medizin and Veterinärmedizin” [Parasitological Working Methods in Medicine and Veterinary Medicine], Akademie-Verlag, Berlin (1965)). The individual findings are related to the untreated non-infected control groups and a total score is calculated (cf. A. Haberkorn (1986), pp. 263 to 270 in Research in Avian Coccidiosis ed L. R. McDougald, L. P. Joyner, P. L. Long, Proceedings of the Georgia Coccidiosis Conference, Nov. 18-20, 1985, Athens/Ga. USA).
# (§2) In the column “ppm”, the concentration of the active compound employed in the feed is indicated in ppm.
# (§3) In the column “mortality”, the percentage of the dead animals is indicated under % and the number of dead animals/animals employed in the experiment is indicated under n.
# (§4) In the column “weight % of not inf. control”, the ratio of the weight of the treated animals to the weight of the non-infected control group is indicated.
# (§5) In the columns “dropping scores”, “lesion score” and “oocyst control”, individual details of the action are given.
# (§6) In the column “% efficacy”, the total score is assessed; 0% means no action, 100% means full action.
# [2] = system: Eimeria maxima; test: Cage experiment on coccidiosis/chicks; settings: chicks; for Efficacy against Eimeria maxima: 2nd figure of cell
# Experimental: as §1, §2, §3, §4, §5, §6
# [3] = system: Eimeria tenella; test: Cage experiment on coccidiosis/chicks; settings: chicks; for Efficacy against Eimeria tenella: 3rd figure of cell
# Experimental: as §1, §2, §3, §4, §5, §6
# [4] = system: Eimeria acervulina, Eimeria maxima and Eimeria tenella; test: Cage experiment on coccidiosis/chicks, mixed experimental infection; settings: chicks; for dropping scores / lesion score: assessment 0 to 6; for mortality n: dead animals/animals employed; for % efficay tot.: total score
# Experimental: as §1, §2, §3, §4, §5, §6
smiles,measurement,setting,value
CCOCn1c(C(F)(F)F)nc2c(C(F)(F)F)cc(OC(F)(F)F)cc21 [Ex. 3],Efficacy against Eimeria acervulina,[1]; 1 ppm in feed,0
same,Efficacy against Eimeria acervulina,[1]; 2.5 ppm in feed,2
same,Efficacy against Eimeria acervulina,[1]; 5 ppm in feed,2
same,Efficacy against Eimeria acervulina,[1]; 7.5 ppm in feed,2
same,Efficacy against Eimeria acervulina,[1]; 10 ppm in feed,1
same,Efficacy against Eimeria maxima,[2]; 1 ppm in feed,0
same,Efficacy against Eimeria maxima,[2]; 2.5 ppm in feed,2
same,Efficacy against Eimeria maxima,[2]; 5 ppm in feed,2
same,Efficacy against Eimeria maxima,[2]; 7.5 ppm in feed,2
same,Efficacy against Eimeria maxima,[2]; 10 ppm in feed,1
same,Efficacy against Eimeria tenella,[3]; 1 ppm in feed,0
same,Efficacy against Eimeria tenella,[3]; 2.5 ppm in feed,1
same,Efficacy against Eimeria tenella,[3]; 5 ppm in feed,2
same,Efficacy against Eimeria tenella,[3]; 7.5 ppm in feed,2
same,Efficacy against Eimeria tenella,[3]; 10 ppm in feed,1
CCOCn1c(C(F)(F)F)nc2cc(OC(F)(F)F)c(C(F)(F)F)cc21 [Ex. 1],Efficacy against Eimeria acervulina,[1]; 1 ppm in feed,0
same,Efficacy against Eimeria acervulina,[1]; 2.5 ppm in feed,2
same,Efficacy against Eimeria acervulina,[1]; 5 ppm in feed,2
same,Efficacy against Eimeria acervulina,[1]; 7.5 ppm in feed,2
same,Efficacy against Eimeria acervulina,[1]; 10 ppm in feed,2
same,Efficacy against Eimeria maxima,[2]; 1 ppm in feed,1
same,Efficacy against Eimeria maxima,[2]; 2.5 ppm in feed,2
same,Efficacy against Eimeria maxima,[2]; 5 ppm in feed,2
same,Efficacy against Eimeria maxima,[2]; 7.5 ppm in feed,2
same,Efficacy against Eimeria maxima,[2]; 10 ppm in feed,2
same,Efficacy against Eimeria tenella,[3]; 1 ppm in feed,1
same,Efficacy against Eimeria tenella,[3]; 2.5 ppm in feed,2
same,Efficacy against Eimeria tenella,[3]; 5 ppm in feed,2
same,Efficacy against Eimeria tenella,[3]; 7.5 ppm in feed,2
same,Efficacy against Eimeria tenella,[3]; 10 ppm in feed,1
CC(C)COCn1c(C(F)(F)F)nc2cc(OC(F)(F)F)c(C(F)(F)F)cc21 [Ex. 2],mortality %,[4]; Ex. 2 2.5 ppm in feed,33%
same,oocyst in % of inf. control tot.,[4]; Ex. 2 2.5 ppm in feed,>100%
same,weight % of not inf. control,[4]; Ex. 2 2.5 ppm in feed,33%
same,dropping scores,[4]; Ex. 2 2.5 ppm in feed,6
same,lesion score,[4]; Ex. 2 2.5 ppm in feed,6
same,mortality n,[4]; Ex. 2 2.5 ppm in feed,1/3
same,% efficay tot.,[4]; Ex. 2 2.5 ppm in feed,2%
same,mortality %,[4]; Ex. 2 5 ppm in feed,33%
same,oocyst in % of inf. control tot.,[4]; Ex. 2 5 ppm in feed,73%
same,weight % of not inf. control,[4]; Ex. 2 5 ppm in feed,65%
same,dropping scores,[4]; Ex. 2 5 ppm in feed,6
same,lesion score,[4]; Ex. 2 5 ppm in feed,6
same,mortality n,[4]; Ex. 2 5 ppm in feed,1/3
same,% efficay tot.,[4]; Ex. 2 5 ppm in feed,37%
same,mortality %,[4]; Ex. 2 7.5 ppm in feed,33%
same,oocyst in % of inf. control tot.,[4]; Ex. 2 7.5 ppm in feed,41%
same,weight % of not inf. control,[4]; Ex. 2 7.5 ppm in feed,74%
same,dropping scores,[4]; Ex. 2 7.5 ppm in feed,6
same,lesion score,[4]; Ex. 2 7.5 ppm in feed,6
same,mortality n,[4]; Ex. 2 7.5 ppm in feed,1/3
same,% efficay tot.,[4]; Ex. 2 7.5 ppm in feed,36%
same,mortality %,[4]; Ex. 2 10 ppm in feed,0%
same,oocyst in % of inf. control tot.,[4]; Ex. 2 10 ppm in feed,83%
same,weight % of not inf. control,[4]; Ex. 2 10 ppm in feed,69%
same,dropping scores,[4]; Ex. 2 10 ppm in feed,6
same,lesion score,[4]; Ex. 2 10 ppm in feed,6
same,mortality n,[4]; Ex. 2 10 ppm in feed,0/3
same,% efficay tot.,[4]; Ex. 2 10 ppm in feed,17%
same,Efficacy against Eimeria acervulina,[1]; 1 ppm in feed,1
same,Efficacy against Eimeria acervulina,[1]; 2.5 ppm in feed,1
same,Efficacy against Eimeria acervulina,[1]; 5 ppm in feed,0
same,Efficacy against Eimeria acervulina,[1]; 7.5 ppm in feed,1
same,Efficacy against Eimeria acervulina,[1]; 10 ppm in feed,1
same,Efficacy against Eimeria acervulina,[1]; 25 ppm in feed,2
same,Efficacy against Eimeria acervulina,[1]; 50 ppm in feed,2
same,oocyst in % of inf. control ac.,[1]; Ex. 2 2.5 ppm in feed,>100%
same,oocyst in % of inf. control ac.,[1]; Ex. 2 5 ppm in feed,54%
same,oocyst in % of inf. control ac.,[1]; Ex. 2 7.5 ppm in feed,56%
same,oocyst in % of inf. control ac.,[1]; Ex. 2 10 ppm in feed,93%
same,Efficacy against Eimeria maxima,[2]; 1 ppm in feed,1
same,Efficacy against Eimeria maxima,[2]; 2.5 ppm in feed,1
same,Efficacy against Eimeria maxima,[2]; 5 ppm in feed,1
same,Efficacy against Eimeria maxima,[2]; 7.5 ppm in feed,1
same,Efficacy against Eimeria maxima,[2]; 10 ppm in feed,2
same,Efficacy against Eimeria maxima,[2]; 25 ppm in feed,2
same,Efficacy against Eimeria maxima,[2]; 50 ppm in feed,2
same,oocyst in % of inf. control max.,[2]; Ex. 2 2.5 ppm in feed,>100%
same,oocyst in % of inf. control max.,[2]; Ex. 2 5 ppm in feed,0%
same,oocyst in % of inf. control max.,[2]; Ex. 2 7.5 ppm in feed,0%
same,oocyst in % of inf. control max.,[2]; Ex. 2 10 ppm in feed,>100%
same,Efficacy against Eimeria tenella,[3]; 1 ppm in feed,1
same,Efficacy against Eimeria tenella,[3]; 2.5 ppm in feed,1
same,Efficacy against Eimeria tenella,[3]; 5 ppm in feed,0
same,Efficacy against Eimeria tenella,[3]; 7.5 ppm in feed,1
same,Efficacy against Eimeria tenella,[3]; 10 ppm in feed,1
same,Efficacy against Eimeria tenella,[3]; 25 ppm in feed,2
same,Efficacy against Eimeria tenella,[3]; 50 ppm in feed,2
same,oocyst in % of inf. control ten.,[3]; Ex. 2 2.5 ppm in feed,>100%
same,oocyst in % of inf. control ten.,[3]; Ex. 2 5 ppm in feed,98%
same,oocyst in % of inf. control ten.,[3]; Ex. 2 7.5 ppm in feed,23%
same,oocyst in % of inf. control ten.,[3]; Ex. 2 10 ppm in feed,65%
"CO[C@@H]1[C@@H](OC)[C@H](C)[C@@](O)(CC(=O)O)O[C@H]1[C@H](C)[C@H]1O[C@@]2(CC[C@@](C)([C@H]3CC[C@@](C)([C@@H]4O[C@@H]([C@H]5O[C@](C)(O)[C@H](C)C[C@@H]5C)C[C@@H]4O[C@@H]4C[C@H](OC)[C@@H](OC)[C@H](C)O4)O3)O2)C[C@H](O)[C@H]1C [MAD, maduramicin, reference compound]",mortality %,[4]; MAD 1 ppm in feed,67%
same,oocyst in % of inf. control tot.,[4]; MAD 1 ppm in feed,>100%
same,weight % of not inf. control,[4]; MAD 1 ppm in feed,17%
same,dropping scores,[4]; MAD 1 ppm in feed,6
same,lesion score,[4]; MAD 1 ppm in feed,6
same,mortality n,[4]; MAD 1 ppm in feed,2/3
same,% efficay tot.,[4]; MAD 1 ppm in feed,0%
same,mortality %,[4]; MAD 2 ppm in feed,0%
same,oocyst in % of inf. control tot.,[4]; MAD 2 ppm in feed,>100%
same,weight % of not inf. control,[4]; MAD 2 ppm in feed,82%
same,dropping scores,[4]; MAD 2 ppm in feed,2
same,lesion score,[4]; MAD 2 ppm in feed,6
same,mortality n,[4]; MAD 2 ppm in feed,0/3
same,% efficay tot.,[4]; MAD 2 ppm in feed,29%
same,mortality %,[4]; MAD 3 ppm in feed,0%
same,oocyst in % of inf. control tot.,[4]; MAD 3 ppm in feed,>100%
same,weight % of not inf. control,[4]; MAD 3 ppm in feed,98%
same,dropping scores,[4]; MAD 3 ppm in feed,0
same,lesion score,[4]; MAD 3 ppm in feed,1
same,mortality n,[4]; MAD 3 ppm in feed,0/3
same,% efficay tot.,[4]; MAD 3 ppm in feed,44%
same,oocyst in % of inf. control ac.,[1]; MAD 1 ppm in feed,>100%
same,oocyst in % of inf. control ac.,[1]; MAD 2 ppm in feed,>100%
same,oocyst in % of inf. control ac.,[1]; MAD 3 ppm in feed,>100%
same,oocyst in % of inf. control max.,[2]; MAD 1 ppm in feed,>100%
same,oocyst in % of inf. control max.,[2]; MAD 2 ppm in feed,>100%
same,oocyst in % of inf. control max.,[2]; MAD 3 ppm in feed,>100%
same,oocyst in % of inf. control ten.,[3]; MAD 1 ppm in feed,85%
same,oocyst in % of inf. control ten.,[3]; MAD 2 ppm in feed,>100%
same,oocyst in % of inf. control ten.,[3]; MAD 3 ppm in feed,75%
